The target in data set [1] is T1, 5-hydroxytryptamine receptor 2B (Homo sapiens, UniProt P41595). Description: Antagonist activity at 5HT2B (unknown origin) expressed in FRT cells co-expressing ANO1 and YFP assessed as inhibition of 5HT-induced increase in iodide influx at 1 uM preincubated with compound for 10 mins followed by 5-HT addition and measured after 8 sec by YFP fluorescence quenching analysis relative to control. The data set is classed as cell-based. The conditions noted are these: time 608.0 sec.
T1 sequence (P41595 whole entry): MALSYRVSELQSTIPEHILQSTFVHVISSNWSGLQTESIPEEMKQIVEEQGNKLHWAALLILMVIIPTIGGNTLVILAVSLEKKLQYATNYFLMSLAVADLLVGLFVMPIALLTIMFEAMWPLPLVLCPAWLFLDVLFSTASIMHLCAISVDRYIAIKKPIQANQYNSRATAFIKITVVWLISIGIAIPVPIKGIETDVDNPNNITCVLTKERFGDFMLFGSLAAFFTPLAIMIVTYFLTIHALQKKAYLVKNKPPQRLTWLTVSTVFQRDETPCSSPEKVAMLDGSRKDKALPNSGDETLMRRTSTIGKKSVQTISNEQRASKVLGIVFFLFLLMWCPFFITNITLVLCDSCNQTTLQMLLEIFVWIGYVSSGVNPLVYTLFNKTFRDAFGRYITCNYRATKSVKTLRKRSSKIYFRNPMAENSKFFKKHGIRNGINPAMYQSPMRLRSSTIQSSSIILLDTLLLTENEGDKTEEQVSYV

Data set [2] has as its target T1, 5-hydroxytryptamine receptor 2B. Description: Binding affinity to 5-HT2B (unknown origin).
For data set [3] the target is unchanged. Kind of data set: Binding affinity to 5-HT2B (unknown origin) assessed as inhibition constant by receptor binding assay.
Data set [4] has the same target. Description: Antagonist activity at 5HT2B (unknown origin) expressed in FRT cells co-expressing ANO1 and YFP assessed as inhibition of 5HT-induced increase in iodide influx preincubated with compound for 10 mins followed by 5-HT addition and measured after 8 sec by YFP fluorescence quenching analysis. Type of data set: cell-based.
Data set [5] is described as follows: Drug concentration in male mouse plasma at 5 mg/kg, ip measured after 0.5 hrs. Type of data set: ADME, organism-based.
Data set [6] can be described thus: Drug concentration in male mouse brain at 5 mg/kg, ip measured after 0.5 hrs. Conditions: read-out: Ct. The data set is classed as ADME, organism-based.
Data set [7] in a line: Ratio of drug concentration in male mouse brain to plasma at 5 mg/kg, ip measured after 0.5 hrs. The data set is classed as ADME, organism-based. Conditions: brain and plasma, read-out: BPR.

We go through ten compounds from ChEMBL document CHEMBL6115026, “Synthesis and Biological Evaluation of Peripheral 5HT2B Antagonists for Liver Fibrosis” (J Med Chem, 2025).

As a reminder, the inhibition is the relative decrease from the control value, in per cent. For `COc1ccc(S(=O)(=O)N[C@H]2CCOC2)cc1C(=O)Nc1ccccc1NC(=O)OC(C)(C)C`, the inhibition in data set [1] is 20.1%. For `COc1ccc(S(=O)(=O)NC2CCN(C(=O)OC(C)(C)C)CC2)cc1C(=O)Nc1ccccc1Cl`, in data set [1] (filed as antagonist), the inhibition amounted to 47.1%. A word on the IC50: it is the concentration that inhibits the measured activity by half. With `C[C@@H]1CN(C(=N)NCc2ccccc2)N=C1c1cccc(Cl)c1O`, the 50% inhibitory concentration (IC50) in data set [2] is < 1 nM. As to `COc1ccc(S(=O)(=O)N[C@H]2CCOC2)cc1C(=O)Nc1ccccc1N1CCN(C(=O)OC(C)(C)C)CC1`, the inhibition in data set [1] came to 1.64%. For `COc1ccc(S(=O)(=O)N[C@@H]2CCN(C(=O)C[C@H](N)C(=O)O)C2)cc1C(=O)Nc1ccccc1Cl`, the inhibition in data set [1] (filed as antagonist) was 100%. What is called Ki is a measure of affinity in units of concentration, obtained from inhibition or displacement. With `NCC(=O)NCCN1CCN(CCCN2c3ccccc3Sc3ccc(C(F)(F)F)cc32)CC1`, in data set [3], the Ki was 5.2 nM. As for `COc1ccc(S(=O)(=O)N[C@H]2CCN(C(=O)C[C@H](N)C(=O)O)C2)cc1C(=O)Nc1ccccc1Cl`, the inhibition in data set [1] (filed as antagonist) was found to be 103%. Besides, the IC50 in data set [4] was 10 nM. Regarding `COc1ccc(S(=O)(=O)N[C@H]2CCN(C(=O)[C@@H](N)CC(=O)O)C2)cc1C(=O)Nc1ccccc1Cl`, the inhibition in data set [1] (filed as antagonist) was 94.3%. In data set [4], the IC50 was 80.7 nM. As to `COc1ccc(S(=O)(=O)N[C@H]2CCOC2)cc1C(=O)Nc1ccccc1Cl`, the concentration at 0.5 h in data set [5] worked out at 99.2 ng/mL; in data set [6], 51.7 ng/g. Also, the Kp at 0.5 h in data set [7] worked out at 0.53. Also, the inhibition in data set [1] (filed as antagonist) was determined as 98.8%. The half-maximal inhibitory concentration (IC50) in data set [4] came out at 1.8 nM. With `COc1ccc(S(=O)(=O)N[C@H]2CCOC2)cc1C(=O)Nc1ccccc1N1CCNCC1`, in data set [1], the inhibition amounted to 15%.
